Consider ten molecules from patent publication US20250092065A1, “2-(INDAZOL-5-YL)-6-(PIPERIDIN-4-YL)-1,7-NAPHTHYRIDINE DERIVATIVES AND RELATED COMPOUNDS AS MODULATORS FOR SPLICING NUCLEIC ACIDS AND FOR THE TREATMENT OF PROLIFERATIVE DISEASES” (REMIX THERAPEUTICS INC., priority 2022, published 2025).

As a reminder, the AC50 is the concentration at which the activity in the assay is half-maximal. Usually IC50 stands for the concentration that inhibits the measured activity by half.

This assay has as its system MYB mRNA. Put plainly: RT-qPCR splicing assay, MYB mRNA canonical (CJ) and alternative (AJ) junction. In kind it is cell-based, human. Particulars: Homo sapiens; for AC50: MYB alternative junction mRNA, read-out: MYB AJ (increase in AJ mRNA, AC50). In outline: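 Splice switching quantified in compound-treated A673/K562 cells after 24 h exposure (top dose 10 uM, 3-fold steps, ≤0.25% DMSO), using CJ and AJ qPCR assays run at least in duplicate. RQ derived by 2^(−ΔΔCt), then percentage response.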

Where [1] appears, read: MYB canonical junction mRNA, RT-qPCR, read-out: MYB CJ (decrease in CJ mRNA levels, IC50).
Setting [2] is: canonical junction qPCR panel, Table 4, read-out: MYB IC50 (decrease in CJ mRNA levels).

SMILES strings stand for the structures. Where a name gives a salt, the structure may show the parent alone. Read-outs that look alike come from different tables or passages of the source.

In the case of `Cc1c(O)c(-c2ccc3nc(N4CC[C@@H](NC5CC5)C4)ncc3n2)cc2cn(C)nc12` [Compound 438, 5-{2-[(3R)-3-(cyclopropylamino)pyrrolidin-1-yl]pyrido[3,2-d]pyrimidin-6-yl}-2,7-dimethylindazol-6-ol], the AC50 (RT-qPCR) was less than 0.1 µM. Moreover, the IC50 reads like this: under setting [1], 0.1 to 1 µM; under setting [2], 0.1 to 1 µM.
On to `Cc1c(O)c(-c2ccc3nc(N4CC[C@H](NC5CC5)C4)ncc3n2)cc2cn(C)nc12` [Compound 439, 5-{2-[(3S)-3-(cyclopropylamino)pyrrolidin-1-yl]pyrido[3,2-d]pyrimidin-6-yl}-2,7-dimethylindazol-6-ol], for which the AC50 (RT-qPCR) lay in the range of 0.1 to 1 µM. Also, the 50% inhibitory concentration (IC50) runs as follows: under setting [1], 0.1 to 1 µM; under setting [2], 0.1 to 1 µM.
For the molecule `Cc1nc2c(C)c(O)c(-c3ccc4cc(N5CC[C@@H](NC6CC6)C5)ncc4n3)cc2o1` [Compound 440, 6-{6-[(3R)-3-(cyclopropylamino)pyrrolidin-1-yl]-1,7-naphthyridin-2-yl}-2,4-dimethyl-1,3-benzoxazol-5-ol], the half-maximal activity concentration (AC50) (RT-qPCR) was 0.1 to 1 µM. Moreover, the 50% inhibitory concentration (IC50) fell in the range of 0.1 to 1 µM under setting [1] and 0.1 to 1 µM under setting [2].
For `Cc1nc2c(C)c(O)c(-c3ccc4cc(N5CC[C@H](NC6CC6)C5)ncc4n3)cc2o1` [Compound 441, 6-{6-[(3S)-3-(cyclopropylamino)pyrrolidin-1-yl]-1,7-naphthyridin-2-yl}-2,4-dimethyl-1,3-benzoxazol-5-ol], the AC50 (RT-qPCR) was 0.1 to 1 µM. Also, the concentration for half-maximal inhibition (IC50) lay in the range of 0.1 to 1 µM under setting [1] and 0.1 to 1 µM under setting [2].
Turning to `Cn1cc2cc(-c3ccc4nc(C5CCNC6(CC6)C5)ncc4n3)c(O)cc2n1` (stereo not drawn) [Compound 448, 5-(2-{4-azaspiro[2.5]octan-7-yl}pyrido[3,2-d]pyrimidin-6-yl)-2-methylindazol-6-ol], the AC50 (RT-qPCR) was 1 to 10 µM. Moreover, the IC50 lay in the range of 0.1 to 1 µM under setting [1] and 0.1 to 1 µM under setting [2].
Take `Cn1cc2cc(-c3ccc4cc(N5CCC(NC(C)(C)C)C5)ncc4n3)c(O)cc2n1` (stereo not drawn) [Compound 449, 5-{6-[3-(tert-butylamino)pyrrolidin-1-yl]-1,7-naphthyridin-2-yl}-2-methylindazol-6-ol]: the AC50 (RT-qPCR) fell in the range of 0.1 to 1 µM. For the same molecule, the half-maximal inhibitory concentration (IC50) runs as follows: under setting [1], 0.1 to 1 µM; under setting [2], 0.1 to 1 µM.
For `Cc1nc2cc(O)c(-c3ccc4cc(N5CC[C@H](NC(C)(C)C)C5)ncc4n3)cc2o1` [Compound 450], for the setting “RT-qPCR”, the half-maximal activity concentration (AC50) is 1 to 10 µM. Besides, the half-inhibitory concentration (IC50) by setting is: under setting [1], 1 to 10 µM; under setting [2], 1 to 10 µM.
Regarding `Cc1c(O)c(-c2cc(Cl)c3cc(N4CCNCC4)cc(C)c3n2)cc2cn(C)nc12` [Compound 482, 5-[4-chloro-8-methyl-6-(piperazin-1-yl)577yrrolidi-2-yl]-2,7-dimethylindazol-6-ol hydrochloride], the half-maximal activity concentration (AC50) (RT-qPCR) is less than 0.1 µM. The half-maximal inhibitory concentration (IC50) under setting [1] is less than 0.1 µM and the IC50 under setting [2] is less than 0.1 µM.
In the case of `Cc1cc2nc(-c3cc4cn(C)nc4c(C)c3O)cc(Cl)c2cc1N1CCNCC1` [Compound 484, 5-[4-chloro-7-methyl-6-(piperazin-1-yl)586yrrolidi-2-yl]-2,7-dimethylindazol-6-ol], the AC50 (RT-qPCR) lay within 0.1 to 1 µM. Moreover, the half-maximal inhibitory concentration (IC50) runs as follows: under setting [1], 0.1 to 1 µM; under setting [2], 0.1 to 1 µM.
As to `CNC1CCN(c2cc3c(Cl)cc(-c4cc5cn(C)nc5c(C)c4O)nc3cc2C)C1` (stereo not drawn) [Compound 486, 5-{4-chloro-7-methyl-6-[3-(methylamino)pyrrolidin-1-yl]quinolin-2-yl}-2,7-dimethylindazol-6-ol], the AC50 (RT-qPCR) was in the range of 0.1 to 1 µM. For the same molecule, the IC50 under setting [1] fell in the range of 0.1 to 1 µM and the IC50 under setting [2] was in the range of 0.1 to 1 µM.
